In one data set the test system is ob/ob mice. The data set is described as follows: Intraperitoneal glucose tolerance test in ob/ob mice. To be noted: 5 mg/kg oral, glucose 2 g/kg i.p. 1 hour later. The data set is classed as in vivo, mouse. As to the method:
Three-month-old mice were starved for 12 h and then orally administrated with vehicle (0.5% methylcellulose) or DDN (5 mg/kg). Cell lysates were prepared from liver and muscle tissues collected at 1 and 2 h after drug administration and analyzed by immunoprecipitation and immunoblotting. […] Three-month-old mice were starved for 12 h and then orally administrated with vehicle (0.5% methylcellulose) or DDN (5 mg/kg). Cell lysates were prepared from liver and muscle tissues collected at 1 and 2 h after drug administration and analyzed by immunoprecipitation and immunoblotting. (C) Hypoglycemic function of DDN in db/db mice. […] Blood glucose was monitored before and after drug administration at 1-hour intervals (*: P<0.05, **: P<0.01, n=5, Two-way ANOVA vs vehicle). […] Blood glucose was measured at 30-min intervals (*: P<0.05, **:P<0.01, n=5, Two-way ANOVA vs vehicle control).
(A) 4524-E7 provokes IR phosphorylation in various tissues of mice. […] Cell lysates from liver, muscle, and WAT were prepared at 3, 4, and 5 h after drug administration and analyzed by immunoblotting. (B) Basal and insulin-stimulated hepatic glucose production rates were measured by hyperinsulinemic-euglycemic clamp. […] Blood glucose was monitored at different time points as indicated (n=8, *: P<0.05, two-way ANOVA). […] Blood glucose was monitored at different time points as indicated (n=5, *: P<0.05, two-way ANOVA). […]

The target in a further data set is IR (Mus musculus, UniProt P15208). The data set is described as follows: IR phosphorylation and downstream signaling in mouse tissues. The data set is classed as in vivo. As to conditions: for IR and ERK phosphorylations in liver and muscle: 5 mg/kg oral, 1 and 2 h. Here is the method:
(A) DDN reduces blood glucose in C57BL/6J mice. […] Blood glucose was monitored before and after dosing at various time points as indicated (*: P<0.05, **: P<0.01; ***: P<0.001, n=10-13, Two-way ANOVA vs vehicle). (B) DDN provokes IR phosphorylation and its downstream signaling in C57BL/6J mice. Three month-old C57BL/6J mice were starved for 12 h and then orally administrated with vehicle (0.5% methylcellulose), DDN (20 mg/kg) or 2NH2-NQ (20 mg/kg). Cell lysates were prepared from liver and muscle tissues collected at 3, 4, and 5 h after drug administration and analyzed by immunoprecipitation and immunoblotting. (C) DDN quickly activates IR phosphorylation and its downstream signaling. Three-month-old C57BL/6J mice were starved for 12 h and then injected with vehicle, 5 mg/kg DDN or 5 mg/kg 2NH2-NQ through vena cava. After 5 min, the liver was collected and analyzed by immunobloting using specific antibodies.
Three-month-old mice were starved for 12 h and then orally administrated with vehicle (0.5% methylcellulose) or DDN (5 mg/kg). Cell lysates were prepared from liver and muscle tissues collected at 1 and 2 h after drug administration and analyzed by immunoprecipitation and immunoblotting. […] Three-month-old mice were starved for 12 h and then orally administrated with vehicle (0.5% methylcellulose) or DDN (5 mg/kg). Cell lysates were prepared from liver and muscle tissues collected at 1 and 2 h after drug administration and analyzed by immunoprecipitation and immunoblotting. (C) Hypoglycemic function of DDN in db/db mice. The animals were starved for 12 h and then orally injected with vehicle (0.5% methylcellulose) or DDN (5 mg/kg). […] Blood glucose was monitored before and after drug administration at 1-hour intervals (*: P<0.05, **: P<0.01, n=5, Two-way ANOVA vs vehicle). (D) DDN improves the glucose tolerance in ob/ob mice. The animals were starved for 12 h and then orally dosed with vehicle (0.5% methylcellulose) or DDN (5 mg/kg). […] A bonus of glucose (2 gm/kg) was injected intraperitoneally 1 hour later. Blood glucose was measured at 30-min intervals (*: P<0.05, **:P<0.01, n=5, Two-way ANOVA vs vehicle control).
(A) 4524-E7 provokes IR phosphorylation in various tissues of mice. Three-month-old C57BL/6J mice were starved for 12 h and then dosed with vehicle (0.5% methylcellulose) or 4524-E7 (20 mg/kg). Cell lysates from liver, muscle, and WAT were prepared at 3, 4, and 5 h after drug administration and analyzed by immunoblotting. (B) Basal and insulin-stimulated hepatic glucose production rates were measured by hyperinsulinemic-euglycemic clamp. […] (C) Hypoglycemic effect of 4524-E7 in C57BL/6J mice. C57BL/6J mice were starved for 12 h and then orally administrated with vehicle (0.5% methylcellulose) or 4524-E7 (5 mg/kg). Blood glucose was monitored at different time points as indicated (n=8, *: P<0.05, two-way ANOVA). (D) Hypoglycemic effect in db/db mice. db/db mice were starved for 12 h and then orally injected with vehicle (0.5% methylcellulose) or 4524-E7 (5 mg/kg). Blood glucose was monitored at different time points as indicated (n=5, *: P<0.05, two-way ANOVA). (E) Glucose tolerance test in ob/ob mice. The mice were starved for 12 hours and then orally administrated with vehicle or 4524-E7 (5 mg/kg). A bonus of glucose (2 gm/kg) was injected intraperitoneally 1 hour later. Blood glucose was then measured at 30 min intervals (n=13, *: P<0.05; **: P<0.01, two-way ANOVA).
After a 12 h fasting, C57BL/6J mice were orally administrated with 20 mg/kg of compound in 0.5% methylcellulose, and sacrificed at 3 h, 4 h and 5 h following compound administration. Fat tissues were dissected quickly and frozen on dry ice. Fat lysates were prepared and analyzed by Western blotting.

The subject of another data set is mice. The data set is described as follows: Repeated dosing tolerability in mice. The data set is classed as in vivo, mouse. As to the method:
[…] Mice were chronically treated with 4524-E7 for 2 weeks and tested if the compound can inhibit food intake.
In liver and muscle, DDN elicited demonstrable IR activation after 3-4 h (FIG. 3B, 1st panel). […] The liver was then dissected and homogenized after 5 min. […] Similarly to the observation in C57/BL6 mice, DDN induces IR signaling in the well-established mice models of non-insulin-dependent diabetes mellitus.

The mark [1] stands for this setting: C57BL/6J mice, 5 mg/kg daily oral, 16 days.

IR, sequence (P15208 28-1372): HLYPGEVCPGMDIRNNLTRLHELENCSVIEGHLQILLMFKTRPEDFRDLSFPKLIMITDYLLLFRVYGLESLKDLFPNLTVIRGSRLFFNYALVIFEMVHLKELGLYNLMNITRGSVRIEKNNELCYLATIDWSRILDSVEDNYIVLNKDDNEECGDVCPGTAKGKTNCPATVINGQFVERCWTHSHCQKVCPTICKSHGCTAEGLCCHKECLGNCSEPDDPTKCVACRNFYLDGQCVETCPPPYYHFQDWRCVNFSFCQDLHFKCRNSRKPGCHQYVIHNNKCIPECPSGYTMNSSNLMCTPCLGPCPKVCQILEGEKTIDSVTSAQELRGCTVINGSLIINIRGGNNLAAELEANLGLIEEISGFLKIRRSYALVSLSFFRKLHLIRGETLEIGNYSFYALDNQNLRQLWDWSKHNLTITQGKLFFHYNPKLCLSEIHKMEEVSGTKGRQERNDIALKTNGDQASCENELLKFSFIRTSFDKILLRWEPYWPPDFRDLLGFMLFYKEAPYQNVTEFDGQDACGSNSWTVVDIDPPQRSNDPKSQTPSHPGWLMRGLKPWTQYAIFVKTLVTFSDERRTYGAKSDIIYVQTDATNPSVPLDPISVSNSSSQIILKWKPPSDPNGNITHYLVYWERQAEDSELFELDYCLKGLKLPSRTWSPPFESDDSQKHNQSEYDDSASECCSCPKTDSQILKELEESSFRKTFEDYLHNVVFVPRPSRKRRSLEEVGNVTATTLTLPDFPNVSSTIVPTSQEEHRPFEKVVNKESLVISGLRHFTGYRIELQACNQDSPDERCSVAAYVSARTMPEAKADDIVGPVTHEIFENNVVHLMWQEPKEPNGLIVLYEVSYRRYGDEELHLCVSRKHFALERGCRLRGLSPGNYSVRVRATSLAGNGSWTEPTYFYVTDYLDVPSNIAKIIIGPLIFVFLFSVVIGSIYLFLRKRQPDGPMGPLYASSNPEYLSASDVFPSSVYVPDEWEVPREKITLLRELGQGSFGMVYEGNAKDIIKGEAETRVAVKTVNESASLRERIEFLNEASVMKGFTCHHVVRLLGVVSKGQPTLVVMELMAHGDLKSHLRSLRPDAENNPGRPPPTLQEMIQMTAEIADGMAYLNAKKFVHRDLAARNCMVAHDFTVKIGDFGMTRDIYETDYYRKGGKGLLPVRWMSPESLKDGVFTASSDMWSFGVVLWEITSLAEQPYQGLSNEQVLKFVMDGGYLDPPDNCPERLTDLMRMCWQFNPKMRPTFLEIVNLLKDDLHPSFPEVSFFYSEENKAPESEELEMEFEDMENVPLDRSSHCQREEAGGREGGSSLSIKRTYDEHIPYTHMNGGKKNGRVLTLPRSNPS

For the compound `O=C1c2ccccc2C(=O)C2SC(Nc3ccc(Cl)cc3)=NC12` (stereo not drawn) [4524-E7, 2-((4-chlorophenyl)amino)naphtho[2,3-d]thiazole-4,9(3aH,9aH)-dione], in the data set on ob/ob mice, the glucose tolerance result is “significant improvement of glucose tolerance”. Also, the “IR tyrosine phosphorylation in the liver, muscle and WAT” value on IR (C57BL/6J mice, 20 mg/kg oral, 3 h after administration) is on record as “all elevated”. In the data set on mice (5 mg/kg, 2 weeks), the blood chemistry analysis result is “comparable results between drug-treated mice and vehicle control”; the “food intake and body weight compared to vehicle control” value is given as “not significantly changed”. In addition, the “pathological examination on all major organs” value in the data set on mice (two week period) was “no demonstrable toxicity was detected”.
For the compound `CC(=O)Oc1ccc(OC(C)=O)c2c1C(=O)C(Cl)=C(Cl)C2=O` [DDN, 5,8-diacetyloxy-2,3-dichloro-1,4-naphthoquinone], the glucose tolerance entry with ob/ob mice was “significant improvement in glucose tolerance”. In addition, the “IR, Akt and ERK activation in liver” value at IR (C57BL/6J mice, 5 mg/kg through vena cava, after 5 min) is “quickly activated IR”. Moreover, the “IR and IRS-1 tyrosine phosphorylation in liver and muscle” value on IR (C57BL/6J mice, 20 mg/kg oral) was “confirmed IRS-1 tyrosine phosphorylation in both tissues”. Besides, the “time until demonstrable IR activation in liver and muscle” value at IR (C57BL/6J mice, 20 mg/kg oral gavage) lay in the range of 3 to 4 h. For the same compound, the “IR and ERK phosphorylations in liver and muscle” value is “enhanced IR and ERK phosphorylations” on IR (db/db mice); “enhanced IR and ERK phosphorylations” at IR (ob/ob mice). Besides, the “time until IR activation in liver and muscle” value on IR (injected into blood stream through vena cava) is 5 min. Also, in the data set on mice (setting [1]), the “food intake and blood biochemistry” value is recorded as “did not affect the food intake, or blood biochemistry”. The “pathological examination of brain, heart, liver, kidney and muscle” value with mice (setting [1]) is recorded as “failed to detect any demonstrable toxicity”. Moreover, the side effects entry in the data set on mice (administrated to animals for two weeks) is recorded as “does not exhibit any intolerable side effects”.

The values above are taken from patent US9040713B2, “Methods of managing blood sugar levels and compositions related thereto” (EMORY UNIVERSITY, priority 2010, dated 2015).
